Target: T1, Nano luciferase (NLuc) (Oplophorus gracilirostris, UniProt Q9GV45, A31E/A60N/A81I/F95D/I117V/K70R/L54V/L99Q/M102K/N193R/P142E/Q151K/Q38R/Q45L/V71I/Y165I)
T1 construct: His tag (inferred from IMAC purification); made in house; host or cells: E. coli
Test: Thermal shift profiles (Thermofluor assay), NLuc
Assay type: binding
Design: unit of the concentration uncertain
Details: compound 100 (unit uncertain); for Thermofluor NLuc, ATP: ATP (2 mM)
Experimental: Thermal stabilization of proteins in the presence of the ligands were determined using Thermofluor technique. MicroAmp optical 384-well plates (Applied Biosystems by Life Technologies), ViiA 7 real-time PCR instrument (Applied Biosystems by Life Technologies) and SYPRO Orange (Life Technologies) were used to test the samples. […]. Proteins were added to the 384-well plate first followed by the compounds. Samples were incubated for 10 mins at room temperature and protected from light. SYPRO Orange dye was diluted to 50x from 5000x stock in a PBS buffer, and 4 µL dye was added to the each well using a multi-channel pipette. The plate was sealed with a MicroAmp optical adhesive film, centrifuged at 1500 RPM for 2 min, and then loaded onto the ViiA 7 real–time PCR instrument for fluorescence intensity measurements upon heating the sample from 25 to 95 °C at 1 °C/min increments. Data was exported to excel, fluorescence intensity data and its first derivative were normalized and plotted using GraphPad Prism to determine Tm. See Supplementary Table 3 for additional details.
Supplementary Figure 6. Comparison of SDR and Thermofluor analysis of […]
Temperature °C Temperature °C […]
Supplementary Table 3. Protocol for Thermofluor assay
Supplementary Table 3: Protocol for Therm ofluor assay
Sequence Param eter Value Description […]
3 Incubation 10 m ins Room tem perature, protected from light
4 Dye 10X Sypro Orange dye in PBS added to the sam ple
5 Centrifugation 2 m in Centrifuge for 2 m in at 1500 RPM at RT
6 Read ViiA7 Read the therm al unfolding of the protein with ViiA7 real-tim e PCR system
4 Prepare 50X dye in PBS: 1 μL Sypro Orange 5000X (Life Technologies), 99 μL ddH2O. Add 4 μL to each well Read the m elting tem perature from 25 to 95 °C using ViiA 7 real tim e PCR instrum ent by following the below instructions Perform therm al denaturation in 384-well assay plate
(i) Place the assay plate into the Applied Biosystem s ViiA7 real-tim e PCR instrum ent and open the ViiA7 RUO software.
Under Experim ental Properties, select the following param eters: Set up: […] (20 μl), Experim ent type: MELT CURVE, Reagents used to detect target sequence: OTHER, Ram p Speed: […]
(ii) Select the Define tab on the left, then select the following param eters: Target nam e: TARGET 1, Reporter: ROX, 6 Quencher: NONE, Passive Reference: NONE
(iii) Select the Assign tab on the left, then perform the following actions: Highlight all 384 wells in the assay plate and check the box next to ‘Target 1’ on the top left of the plate layout. Note: check the ‘Sam ple’ box on the lower left.
(iv) Select the Run Method tab on the left, then m ake the following changes to the default Melt Curve profile: Delete Step 2 of the default cycle, change run m ethod to “Step and Hold” with a 1:00 tim e, set the following tem peratures: an initial 2:00 hold at 25 °C (4 °C), ram ping up in increm ents of 1 ° C to a final tem perature of 95 °C (with a 2:00 hold), click on all three cam eras to activate fluorescence detection throughout the experim ent, and Select total volum e per well of 20 μl
(v) Click on the RUN tab to the left to initiate therm al denaturation.

T1 sequence (Q9GV45 other isoform, or with tags, fused parts or gaps with the stated changes): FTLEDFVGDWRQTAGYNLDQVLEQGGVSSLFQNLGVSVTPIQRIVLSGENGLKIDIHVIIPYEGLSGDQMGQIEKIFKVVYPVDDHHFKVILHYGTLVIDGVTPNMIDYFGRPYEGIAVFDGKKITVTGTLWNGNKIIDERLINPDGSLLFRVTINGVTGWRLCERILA

`CC(CNC(=O)C1CCN(C(=O)c2ncn3c2COC(c2ccccc2)C3)CC1)c1ccccc1` (stereo not drawn) [NCGC 00449795] was tested, and the “Thermofluor NLuc, No ATP” value (20.000 °C) was 1, the “Thermofluor NLuc, ATP” value (20.000 °C) was 0.97 and the “Thermofluor NLuc, No ATP” value (20.993 °C) was 0.711. For the same compound, the “Thermofluor NLuc, ATP” value (20.993 °C) was 0.992, the “Thermofluor NLuc, No ATP” value (21.987 °C) was 0.647 and the “Thermofluor NLuc, ATP” value (21.987 °C) was 1. The “Thermofluor NLuc, No ATP” value (22.980 °C) was 0.606, the “Thermofluor NLuc, ATP” value (22.980 °C) was 0.993 and the “Thermofluor NLuc, No ATP” value (23.974 °C) was 0.589. For the same compound, the “Thermofluor NLuc, ATP” value (23.974 °C) was 0.974, the “Thermofluor NLuc, No ATP” value (24.967 °C) was 0.561 and the “Thermofluor NLuc, ATP” value (24.967 °C) was 0.95. The “Thermofluor NLuc, No ATP” value (25.960 °C) was 0.532, the “Thermofluor NLuc, ATP” value (25.960 °C) was 0.929 and the “Thermofluor NLuc, No ATP” value (26.954 °C) was 0.532. The “Thermofluor NLuc, ATP” value (26.954 °C) was 0.916, the “Thermofluor NLuc, No ATP” value (27.947 °C) was 0.499 and the “Thermofluor NLuc, ATP” value (27.947 °C) was 0.908. The “Thermofluor NLuc, No ATP” value (28.940 °C) was 0.462, the “Thermofluor NLuc, ATP” value (28.940 °C) was 0.904 and the “Thermofluor NLuc, No ATP” value (29.934 °C) was 0.421. The “Thermofluor NLuc, ATP” value (29.934 °C) was 0.9, the “Thermofluor NLuc, No ATP” value (30.927 °C) was 0.383 and the “Thermofluor NLuc, ATP” value (30.927 °C) was 0.894. The “Thermofluor NLuc, No ATP” value (31.921 °C) was 0.366, the “Thermofluor NLuc, ATP” value (31.921 °C) was 0.886 and the “Thermofluor NLuc, No ATP” value (32.914 °C) was 0.333. For the same compound, the “Thermofluor NLuc, ATP” value (32.914 °C) was 0.878, the “Thermofluor NLuc, No ATP” value (33.907 °C) was 0.327 and the “Thermofluor NLuc, ATP” value (33.907 °C) was 0.87. For the same compound, the “Thermofluor NLuc, No ATP” value (34.901 °C) was 0.309, the “Thermofluor NLuc, ATP” value (34.901 °C) was 0.863 and the “Thermofluor NLuc, No ATP” value (35.894 °C) was 0.276. The “Thermofluor NLuc, ATP” value (35.894 °C) was 0.856, the “Thermofluor NLuc, No ATP” value (36.887 °C) was 0.231 and the “Thermofluor NLuc, ATP” value (36.887 °C) was 0.849. For the same compound, the “Thermofluor NLuc, No ATP” value (37.881 °C) was 0.229, the “Thermofluor NLuc, ATP” value (37.881 °C) was 0.841 and the “Thermofluor NLuc, No ATP” value (38.874 °C) was 0.176. For the same compound, the “Thermofluor NLuc, ATP” value (38.874 °C) was 0.833, the “Thermofluor NLuc, No ATP” value (39.868 °C) was 0.201 and the “Thermofluor NLuc, ATP” value (39.868 °C) was 0.827. The “Thermofluor NLuc, No ATP” value (40.861 °C) was 0.184, the “Thermofluor NLuc, ATP” value (40.861 °C) was 0.824 and the “Thermofluor NLuc, No ATP” value (41.854 °C) was 0.161. For the same compound, the “Thermofluor NLuc, ATP” value (41.854 °C) was 0.821, the “Thermofluor NLuc, No ATP” value (42.848 °C) was 0.108 and the “Thermofluor NLuc, ATP” value (42.848 °C) was 0.817. The “Thermofluor NLuc, No ATP” value (43.841 °C) was 0.096, the “Thermofluor NLuc, ATP” value (43.841 °C) was 0.812 and the “Thermofluor NLuc, No ATP” value (44.835 °C) was 0.098. For the same compound, the “Thermofluor NLuc, ATP” value (44.835 °C) was 0.805, the “Thermofluor NLuc, No ATP” value (45.828 °C) was 0.096 and the “Thermofluor NLuc, ATP” value (45.828 °C) was 0.794. The “Thermofluor NLuc, No ATP” value (46.821 °C) was 0.034, the “Thermofluor NLuc, ATP” value (46.821 °C) was 0.779 and the “Thermofluor NLuc, No ATP” value (47.815 °C) was 0.027. For the same compound, the “Thermofluor NLuc, ATP” value (47.815 °C) was 0.76, the “Thermofluor NLuc, No ATP” value (48.808 °C) was 0.048 and the “Thermofluor NLuc, ATP” value (48.808 °C) was 0.734. The “Thermofluor NLuc, No ATP” value (50.795 °C) was 0.006, the “Thermofluor NLuc, ATP” value (50.795 °C) was 0.656 and the “Thermofluor NLuc, No ATP” value (51.788 °C) was 0.009. The “Thermofluor NLuc, ATP” value (51.788 °C) was 0.601, the “Thermofluor NLuc, No ATP” value (52.782 °C) was 0 and the “Thermofluor NLuc, ATP” value (52.782 °C) was 0.533. The “Thermofluor NLuc, No ATP” value (53.775 °C) was 0.03, the “Thermofluor NLuc, ATP” value (53.775 °C) was 0.451 and the “Thermofluor NLuc, No ATP” value (54.768 °C) was 0.027. The “Thermofluor NLuc, ATP” value (54.768 °C) was 0.357, the “Thermofluor NLuc, No ATP” value (55.762 °C) was 0.051 and the “Thermofluor NLuc, ATP” value (55.762 °C) was 0.257. The “Thermofluor NLuc, No ATP” value (56.755 °C) was 0.14, the “Thermofluor NLuc, ATP” value (56.755 °C) was 0.161 and the “Thermofluor NLuc, No ATP” value (57.748 °C) was 0.19. The “Thermofluor NLuc, ATP” value (57.748 °C) was 0.079, the “Thermofluor NLuc, No ATP” value (58.742 °C) was 0.3 and the “Thermofluor NLuc, ATP” value (58.742 °C) was 0.022. For the same compound, the “Thermofluor NLuc, No ATP” value (59.735 °C) was 0.413, the “Thermofluor NLuc, ATP” value (59.735 °C) was 0 and the “Thermofluor NLuc, No ATP” value (60.729 °C) was 0.505. For the same compound, the “Thermofluor NLuc, ATP” value (60.729 °C) was 0.015, the “Thermofluor NLuc, No ATP” value (61.722 °C) was 0.61 and the “Thermofluor NLuc, ATP” value (61.722 °C) was 0.065. The “Thermofluor NLuc, No ATP” value (62.715 °C) was 0.667, the “Thermofluor NLuc, ATP” value (62.715 °C) was 0.143 and the “Thermofluor NLuc, No ATP” value (63.709 °C) was 0.726. The “Thermofluor NLuc, ATP” value (63.709 °C) was 0.238, the “Thermofluor NLuc, No ATP” value (65.695 °C) was 0.759 and the “Thermofluor NLuc, ATP” value (65.695 °C) was 0.437. The “Thermofluor NLuc, No ATP” value (66.689 °C) was 0.785, the “Thermofluor NLuc, ATP” value (66.689 °C) was 0.525 and the “Thermofluor NLuc, No ATP” value (68.676 °C) was 0.749. The “Thermofluor NLuc, ATP” value (68.676 °C) was 0.658, the “Thermofluor NLuc, No ATP” value (69.669 °C) was 0.746 and the “Thermofluor NLuc, ATP” value (69.669 °C) was 0.703. For the same compound, the “Thermofluor NLuc, No ATP” value (70.662 °C) was 0.73, the “Thermofluor NLuc, ATP” value (70.662 °C) was 0.736 and the “Thermofluor NLuc, No ATP” value (71.656 °C) was 0.72. For the same compound, the “Thermofluor NLuc, ATP” value (71.656 °C) was 0.76, the “Thermofluor NLuc, No ATP” value (72.649 °C) was 0.696 and the “Thermofluor NLuc, ATP” value (72.649 °C) was 0.778. The “Thermofluor NLuc, No ATP” value (73.643 °C) was 0.686, the “Thermofluor NLuc, ATP” value (73.643 °C) was 0.793 and the “Thermofluor NLuc, No ATP” value (74.636 °C) was 0.672. The “Thermofluor NLuc, ATP” value (74.636 °C) was 0.807, the “Thermofluor NLuc, No ATP” value (75.629 °C) was 0.623 and the “Thermofluor NLuc, ATP” value (75.629 °C) was 0.82.

— PMC12064818, “A general assay platform to study protein pharmacology using ligand-dependent structural dynamics” (Nature Communications, 2025)
